Source: patent US20130115256A1, “METHODS FOR TREATING OR PREVENTING VASCULAR GRAFT FAILURE” (priority 2010, published 2013)

Columns and labels:
[1] = target: T1, MKK6 (Homo sapiens, UniProt P52564); experiment: MKK6 radiometric kinase assay; assay type: biochemical; settings: MMI-0100 100 μM; remaining kinase activity
T1 construct: purchased Millipore (KinaseProfiler service)
T1 sequence (P52564 1-334): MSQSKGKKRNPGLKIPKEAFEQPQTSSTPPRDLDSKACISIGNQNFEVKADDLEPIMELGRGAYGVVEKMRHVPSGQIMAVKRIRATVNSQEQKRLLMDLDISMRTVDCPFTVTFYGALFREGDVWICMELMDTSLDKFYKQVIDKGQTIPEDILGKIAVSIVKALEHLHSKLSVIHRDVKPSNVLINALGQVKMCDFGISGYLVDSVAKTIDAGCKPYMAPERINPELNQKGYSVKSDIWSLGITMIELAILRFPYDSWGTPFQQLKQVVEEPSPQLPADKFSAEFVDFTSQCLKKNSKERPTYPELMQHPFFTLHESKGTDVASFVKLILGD
Text: (§1) A commercial radiometric assay service was used to test the specificity and potency of MMI-0100 ([…]; SEQ ID NO: 1) by measuring its half maximal inhibitory concentrations (IC50). This quantitative assay measures how much MK2 inhibitor (MMI-0100; […] (SEQ ID NO: 1)) is needed to inhibit 50% of a given biological process or component of a process (i.e., an enzyme, cell, or cell receptor). Specifically, in these assays, a positively charged substrate is phosphorylated with a radiolabeled phosphate group from an ATP if the kinase is not inhibited by an inhibitor peptide. The positively charged substrate then is attracted to a negatively charged filter membrane, quantified with a scintillation counter, and compared to a 100% activity control. ATP concentrations within 15 μM of the apparent Km for ATP were chosen since an ATP concentration near the Km may allow for the kinases to have the same relative amount of phosphorylation activity. The individual conditions for each radiometric assay are as follows.
The reaction was initiated by adding the MgATP. After incubation for 40 minutes at room temperature, 5 μl of the incubation mix was used to initiate the p38MAPK radiometric assay described above.
(§2) IC50 values for inhibitor peptides were determined using Millipore's IC50 Profiler Express service. The IC50 value was estimated from a 10-point curve of one-half log dilutions. […]

[2] = target: T2, MK2 (Homo sapiens, UniProt P49137); experiment: MK2 radiometric kinase assay; assay type: biochemical
T2 construct: purchased Millipore (IC50 Profiler Express / KinaseProfiler service)
Text: as §1, with “The individual conditions for each radiometric assay are as follows.” left out
For the MK2 radiometric assay, 5-10 mU of MK2 was incubated with 50 mM Na b-glycerophosphate pH 7.5, 0.1 mM EGTA, 30 μM KKLNRTLSVA (SEQ ID NO: 34; a substrate peptide for MK2), 10 mM MgAcetate, and 10 μM of [y-^33P-ATP] in a final reaction volume of 25 μl. […] The washed P30 filtermat was dried and its radioactivity was measured by scintillation counter.
(§3) IC50 values for inhibitor peptides were determined using Millipore's IC50 Profiler Express service. […]

[3] = target: T3, MEK1 (Homo sapiens, UniProt Q02750); experiment: MEK1 radiometric kinase assay; assay type: biochemical; settings: MMI-0100 100 μM; remaining kinase activity
T3 construct: purchased Millipore (KinaseProfiler service)
Text: as §1
The reaction was initiated by adding the MgATP. After incubation for 40 minutes at room temperature, 5 μl of this incubation mix was used to initiate the MAPK2 radiometric assay whose reaction condition was the same as the condition for p38 MAPK assay described above.
as §3

[4] = system: mouse lung endothelial cells (MLEC); experiment: MCP-1 production immunoassay; assay type: cell-based; settings: even at high doses
Description: Monocyte Chemotractic Protein-1 (MCP-1) production from mouse lung endothelial cells (MLEC) was analyzed using conditioned culture medium by Quantikine® Mouse CCL/JE/MCP-1 Immunoassay (R&D Systems) following the manufacturer's instructions. Briefly, the assay employs a quantitative sandwich enzyme immunoassay technique in which a monoclonal antibody specific for MCP-1 has been pre-coated onto a microplaste. Standards and samples are pipetted into the wells and any MCP-1 present is bound by the immobilized antibody. After washing away any unbound substances, an enzyme-linked polyclonal antibody specific for MCP-1 is added to the wells. Following a wash to remove any unbound antibody-enzyme reagent, a substrate solution is added to the wells and color develops in proportion to the amount of MCP-1 bound in the initial step. The color development is stopped and the intensity of the color is measured at 450 nm, with wavelength correction at 540 nm or 570 nm.

[5] = system: P38MAPK; experiment: p38 MAPK radiometric kinase assay; assay type: biochemical; settings: MMI-0100 100 μM; remaining kinase activity
Text: as §1, with “ATP concentrations within 15 μM of the apparent Km for ATP were chosen since an ATP concentration near the Km may allow for the kinases to have the same relative amount of phosphorylation activity. The individual conditions for each radiometric assay are as follows.” left out
For the p38 MAPK (p38 Mitogen-Activated Protein Kinase) radiometric assay, 5-10 mU of p38 MAPK was incubated with 25 mM Tris pH 7.5, 0.02 mM EGTA, 0.33 mg/mL myelin basic protein (a substrath for p38 MAPK), 10 mM MgAcetate, and 10 μM of [y-^33P-ATP] in the final reaction volume of 25 μl. […] The washed P30 filtermat was dried and its radioactivity was measured by scintillation counter.
as §3

[6] = target: T4, MKK4 (Homo sapiens, UniProt P45985); experiment: MKK4 radiometric kinase assay; assay type: biochemical; settings: MMI-0100 100 μM; remaining kinase activity
T4 construct: purchased Millipore (KinaseProfiler service)
T4 sequence (P45985 1-399): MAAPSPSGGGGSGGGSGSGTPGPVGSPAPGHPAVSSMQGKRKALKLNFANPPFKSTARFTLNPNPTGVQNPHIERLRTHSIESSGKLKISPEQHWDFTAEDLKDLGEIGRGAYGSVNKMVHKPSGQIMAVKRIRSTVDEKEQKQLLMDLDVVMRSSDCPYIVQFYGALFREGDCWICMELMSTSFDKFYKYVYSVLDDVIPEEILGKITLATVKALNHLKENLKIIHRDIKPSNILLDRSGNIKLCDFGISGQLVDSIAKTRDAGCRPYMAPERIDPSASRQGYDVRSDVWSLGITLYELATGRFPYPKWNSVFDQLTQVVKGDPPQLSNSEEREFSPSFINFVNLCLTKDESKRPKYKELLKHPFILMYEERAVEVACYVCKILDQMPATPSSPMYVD
Text: as §1
The reaction was initiated by the addition of the MgATP. After incubation for 40 minutes at room temperature, 5 μl of the incubation mix was used to initiate the JNK radiometric assay described above.
as §2

T2 sequence (P49137 whole entry, species assumed): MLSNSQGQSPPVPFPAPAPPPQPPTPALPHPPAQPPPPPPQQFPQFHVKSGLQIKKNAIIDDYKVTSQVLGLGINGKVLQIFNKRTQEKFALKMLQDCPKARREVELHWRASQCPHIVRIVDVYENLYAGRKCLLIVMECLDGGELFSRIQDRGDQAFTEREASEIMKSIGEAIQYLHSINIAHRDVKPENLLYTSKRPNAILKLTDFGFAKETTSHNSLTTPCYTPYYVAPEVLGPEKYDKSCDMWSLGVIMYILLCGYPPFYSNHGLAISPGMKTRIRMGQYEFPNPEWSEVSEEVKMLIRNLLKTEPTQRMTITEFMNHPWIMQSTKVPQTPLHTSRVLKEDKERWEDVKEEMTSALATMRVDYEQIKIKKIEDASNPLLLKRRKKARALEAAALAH

YARAAARQARAKALARQLGVAA [MMI-0100]
Percent Activity, MKK6 [1]: 50%
Percent Activity, MK2 ([2]; MMI-0100 100 μM, remaining kinase activity): <5%
inhibition of MK2 activity ([2]; concentration used for specificity profiling (Table 2, 100 μM)): > 95%
Percent Activity, MEK1 [3]: 68%
MCP-1 production [4]: did not stimulate MCP-1 production
Percent Activity, P38MAPK [5]: 60%
Percent Activity, MKK4 [6]: 90%
